Laboratory results reported in patent US7074743B1, “Herbicidal composition comprising 4-iodo-2-[3-(4-methoxy-6-methyl-1,3,5-triazin-2-yl)ureidosulfonyl]benzoic esters” (priority 1995, dated 2006).

Legend:
Format in all cases: in vivo
[1] = test system: Lolium multiflorum; assay: Herbicidal action on LOLMU, visual scoring vs untreated, post-emergence 2-4 leaf stage
Protocol: (§1) The examples given below were performed in the greenhouse and, in some cases, in field trials.
(§2) The herbicides, or combinations, were applied in cereals after the weeds had emerged naturally using plot sprayers. After application, the results, such as damage to the crop plants and effect on broad-leaved weeds/grass weeds were assessed by means of visual scoring. The herbicidal action was assessed qualitatively and quantitatively by comparing untreated and treated plots on the basis of the effect on plant growth and the development of chloroses and necroses down to the complete destruction of the weeds (0–100%). The application was effected when the crop plants and weeds were in the 2–4 leaf stage. The test was evaluated approximately 4 weeks after application.
(§3) In the greenhouse experiments, the crop plants and broadleaved weeds/grass weeds were grown in No. 13 pots and treated in the 2–4 leaf stage. The pots were subsequently placed in the greenhouse under good growth conditions (temperature, atmospheric humidity, water supply).
(§4) The assessments were carried out similarly to those in the field trials, i.e. visual scoring of the treated plants in comparison with untreated control variants. These assessments were carried out 3 weeks after applying the test preparations and their combinations. The experiments had been set up in two replications.
(§5) To assess the combination effects, the activities of the individual components were added and compared with the activity of the mixtures in equal doses. It was frequently observed that the efficacies of the combinations exceeded the total of the individual activities.
(§6) In cases with less clear effects, the expected value was calculated using Colby's formula and compared with the empirically determined result. The calculated efficacy of a combination which is expected in theory is determined is using S.R. Colby's formula: “Calculation of synergistic and antagonistic responses of herbicide combinations”, Weeds 15 (1967), pages 20 to 22.
(§7) [formula] where • X=% damage caused by herbicide A at a rate of ×kg a.i./ha; • Y=% damage caused by herbicide B at a rate of y kg a.i./ha; • Z=% damage caused by a further herbicide C at a rate of z kg a.i./ha; • E=expected value, i.e. expected damage caused by herbicides A+B (or A+B+C) at x+y (or x+y+z) kg a.i./ha.
(§8) Synergistic effects were assumed to be when the empirical value exceeded the expected value. In the case of combinations with individual components with the same active substances, comparisons via the total formula were also possible.

[2] = test system: Abuthilon theophrastis; assay: Herbicidal action on ABUTHE, visual scoring vs untreated, post-emergence 2-4 leaf stage; conditions: Table 12; 2.5 g of ai/ha
Protocol: as §1, §2
(§9) In the greenhouse experiments, the crop plants and broadleaved weeds/grass weeds were grown in No. 13 pots and treated in the 2–4 leaf stage. […]
(§10) In cases with less clear effects, the expected value was calculated using Colby's formula and compared with the empirically determined result. The calculated efficacy of a combination which is expected in theory is determined is using S.R. Colby's formula: “Calculation of synergistic and antagonistic responses of herbicide combinations”, Weeds 15 (1967), pages 20 to 22. […]

[3] = test system: Mercurialis annua; assay: Herbicidal action on MERAN, visual scoring vs untreated, post-emergence 2-4 leaf stage; conditions: Table 11
Protocol: as §1, §2, §3, §4, §5, §6, §7, §8

[4] = test system: Zea mays; assay: Damage to crop plant ZEAMA, visual scoring vs untreated
Protocol: as §1, §2, §3, §4

[5] = test system: Ambrosia elatior; assay: Herbicidal action on AMBEL, visual scoring vs untreated, post-emergence 2-4 leaf stage; conditions: Table 12; 2.5 g of ai/ha
Protocol: as §1, §2, §9, §10

[6] = test system: Triticum aestivum; assay: Damage to crop plant TRZAW, visual scoring vs untreated
Protocol: as §1, §2, §3, §4

[7] = test system: Gallium aparine; assay: Herbicidal action on GALAP, visual scoring vs untreated, post-emergence 2-4 leaf stage
Protocol: as §1, §2, §3, §4, §5, §6, §7, §8

[8] = test system: Echinochloa crus galli; assay: Herbicidal action on ECHCR, visual scoring vs untreated, post-emergence 2-4 leaf stage
Protocol: as §1, §2, §3, §4, §5, §6, §7, §8

[9] = test system: Fallopia convolvulus; assay: Herbicidal action on FALCO, visual scoring vs untreated, post-emergence 2-4 leaf stage
Protocol: as §1, §2, §3, §4, §5, §6, §7, §8

[10] = test system: Phalaris canariensis; assay: Herbicidal action on PHACA, visual scoring vs untreated, post-emergence 2-4 leaf stage (greenhouse / field trials)
Protocol: as §1, §2, §3, §4, §5, §6, §7, §8

[11] = test system: Centaurea cyanus; assay: Herbicidal action on CENCY, visual scoring vs untreated, post-emergence 2-4 leaf stage
Protocol: as §1, §2, §3, §4, §5, §6, §7, §8

COC(=O)c1ccc(I)cc1S(=O)(=O)NC(=O)Nc1nc(C)nc(OC)n1.[Na] [A), sodium salt of methyl 4-iodo-2-[3-(4-methoxy-6-methyl-1,3,5-triazin-2-yl)ureidosulfonyl]benzoate]
LOLMU % control ([1]; Table 2, 3 g of a.i./ha): 0%
LOLMU % control ([1]; Table 2, 5 g of a.i./ha): 5%
LOLMU % control ([1]; Table 2, 10 g of a.i./ha): 10%
LOLMU % control ([1]; Table 2, 20 g of a.i./ha): 48%
LOLMU % control ([1]; Table 3, 3 g of a.i./ha): 0%
LOLMU % control ([1]; Table 3, 5 g of a.i./ha): 5%
LOLMU % control ([1]; Table 3, 10 g of a.i./ha): 10%
LOLMU % control ([1]; Table 3, 20 g of a.i./ha): 48%
LOLMU % control ([1]; Table 5, 2.5 g of a.i./ha): 68%
LOLMU % control ([1]; Table 5, 5 g of a.i./ha): 75%
LOLMU % control ([1]; Table 5, 10 g of a.i./ha): 83%
ABUTHE % control [2]: 10%
MERAN % control ([3]; 5 g of a.i./ha): 70%
MERAN % control ([3]; 10 g of a.i./ha): 94%
ZEAMA % damage ([4]; Table 4, 10 g of a.i./ha): 0%
ZEAMA % damage ([4]; Table 4, 20 g of a.i./ha): 0%
ZEAMA % damage ([4]; Table 4, 40 g of a.i./ha): 0%
ZEAMA % damage ([4]; Table 4, 80 g of a.i./ha): 0%
ZEAMA % damage ([4]; Table 8, 10 g of a.i./ha): 0%
ZEAMA % damage ([4]; Table 8, 20 g of a.i./ha): 0%
ZEAMA % damage ([4]; Table 8, 40 g of a.i./ha): 0%
ZEAMA % damage ([4]; Table 8, 80 g of a.i./ha): 0%
ZEAMA % damage ([4]; Table 12, 2.5 g of ai/ha): 3%
AMBEL % control [5]: 88%
TRZAW % damage ([6]; Table 1, 3 g of a.i./ha): 0%
TRZAW % damage ([6]; Table 1, 5 g of a.i./ha): 0%
TRZAW % damage ([6]; Table 1, 10 g of a.i./ha): 0%
TRZAW % damage ([6]; Table 1, 20 g of a.i./ha): 0%
TRZAW % damage ([6]; Table 2, 3 g of a.i./ha): 0%
TRZAW % damage ([6]; Table 2, 5 g of a.i./ha): 0%
TRZAW % damage ([6]; Table 2, 10 g of a.i./ha): 0%
TRZAW % damage ([6]; Table 2, 20 g of a.i./ha): 0%
TRZAW % damage ([6]; Table 3, 3 g of a.i./ha): 0%
TRZAW % damage ([6]; Table 3, 5 g of a.i./ha): 0%
TRZAW % damage ([6]; Table 3, 10 g of a.i./ha): 0%
TRZAW % damage ([6]; Table 3, 20 g of a.i./ha): 0%
TRZAW % damage ([6]; Table 5, 2.5 g of a.i./ha): 0%
TRZAW % damage ([6]; Table 5, 5 g of a.i./ha): 0%
TRZAW % damage ([6]; Table 5, 10 g of a.i./ha): 0%
TRZAW % damage ([6]; Table 5, 20 g of a.i./ha): 10%
TRZAW % damage ([6]; Table 5, 40 g of a.i./ha): 15%
TRZAW % damage ([6]; Table 5, 80 g of a.i./ha): 18%
TRZAW % damage ([6]; Table 5, 160 g of a.i./ha): 28%
TRZAW % damage ([6]; Table 7, 2.5 g of a.i./ha): 0%
TRZAW % damage ([6]; Table 7, 5 g of a.i./ha): 0%
TRZAW % damage ([6]; Table 7, 10 g of a.i./ha): 2%
TRZAW % damage ([6]; Table 7, 20 g of a.i./ha): 10%
TRZAW % damage ([6]; Table 9, 2.5 g of a.i./ha): 0%
TRZAW % damage ([6]; Table 9, 5 g of a.i./ha): 0%
TRZAW % damage ([6]; Table 9, 10 g of a.i./ha): 2%
TRZAW % damage ([6]; Table 9, 20 g of a.i./ha): 10%
TRZAW % damage ([6]; Table 9, 40 g of a.i./ha): 15%
GALAP % control ([7]; Table 7, 2.5 g of a.i./ha): 35%
GALAP % control ([7]; Table 7, 5 g of a.i./ha): 58%
GALAP % control ([7]; Table 7, 10 g of a.i./ha): 60%
GALAP % control ([7]; Table 7, 20 g of a.i./ha): 99%
GALAP % control ([7]; Table 11, 5 g of a.i./ha): 75%
GALAP % control ([7]; Table 11, 10 g of a.i./ha): 98%
ECHCR % control ([8]; Table 4, 10 g of a.i./ha): 65%
ECHCR % control ([8]; Table 4, 20 g of a.i./ha): 75%
ECHCR % control ([8]; Table 4, 40 g of a.i./ha): 80%
ECHCR % control ([8]; Table 4, 80 g of a.i./ha): 88%
ECHCR % control ([8]; Table 8, 10 g of a.i./ha): 65%
ECHCR % control ([8]; Table 8, 20 g of a.i./ha): 73%
ECHCR % control ([8]; Table 8, 40 g of a.i./ha): 80%
ECHCR % control ([8]; Table 8, 80 g of a.i./ha): 88%
FALCO % control ([9]; Table 5, 2.5 g of a.i./ha): 73%
FALCO % control ([9]; Table 5, 5 g of a.i./ha): 85%
FALCO % control ([9]; Table 5, 10 g of a.i./ha): 88%
FALCO % control ([9]; Table 5, 20 g of a.i./ha): 97%
FALCO % control ([9]; Table 5, 40 g of a.i./ha): 98%
FALCO % control ([9]; Table 5, 80 g of a.i./ha): 99%
FALCO % control ([9]; Table 5, 160 g of a.i./ha): 99%
FALCO % control ([9]; Table 9, 2.5 g of a.i./ha): 73%
FALCO % control ([9]; Table 9, 5 g of a.i./ha): 85%
FALCO % control ([9]; Table 9, 10 g of a.i./ha): 88%
FALCO % control ([9]; Table 9, 20 g of a.i./ha): 97%
FALCO % control ([9]; Table 9, 40 g of a.i./ha): 98%
PHACA % control ([10]; Table 1, 3 g of a.i./ha): 0%
PHACA % control ([10]; Table 1, 5 g of a.i./ha): 15%
PHACA % control ([10]; Table 1, 10 g of a.i./ha): 35%
PHACA % control ([10]; Table 1, 20 g of a.i./ha): 53%
PHACA % control ([10]; Table 2, 3 g of a.i./ha): 0%
PHACA % control ([10]; Table 2, 5 g of a.i./ha): 15%
PHACA % control ([10]; Table 2, 10 g of a.i./ha): 35%
PHACA % control ([10]; Table 2, 20 g of a.i./ha): 53%
PHACA % control ([10]; Table 3, 3 g of a.i./ha): 0%
PHACA % control ([10]; Table 3, 5 g of a.i./ha): 15%
PHACA % control ([10]; Table 3, 10 g of a.i./ha): 35%
PHACA % control ([10]; Table 3, 20 g of a.i./ha): 53%
CENCY % control ([11]; Table 6, 5 g of a.i./ha): 0%
CENCY % control ([11]; Table 6, 10 g of a.i./ha): 30%
CENCY % control ([11]; Table 6, 15 g of a.i./ha): 60%
CENCY % control ([11]; Table 9, 2.5 g of a.i./ha): 30%
CENCY % control ([11]; Table 9, 5 g of a.i./ha): 43%
CENCY % control ([11]; Table 9, 10 g of a.i./ha): 58%
CENCY % control ([11]; Table 9, 20 g of a.i./ha): 78%
CENCY % control ([11]; Table 10, 5 g of a.i./ha): 0%
CENCY % control ([11]; Table 10, 10 g of a.i./ha): 30%
CENCY % control ([11]; Table 10, 15 g of a.i./ha): 60%
